Test results as given in US11214803B2, “Modulators of YAP1 expression” (Ionis Pharmaceuticals, Inc., priority 2019, dated 2022).
Strand notation (5' to 3'): a small letter for the sugar, then the base; units joined by * are phosphorothioate-linked, units joined directly phosphodiester-linked; [ ] holds rarer units or linkages, { } end groups; capitals alone tell only the bases. e = 2'-O-(2-methoxyethyl) (MOE); k = constrained ethyl (cEt); [5mC] = 5-methylcytosine; d = 2'-deoxy (DNA); m = 2'-O-methyl

Test system: Yap1 mRNA
Experiment: Dose-dependent inhibition of human Yap1 in SNU-449 cells (Example 9, RTS36584)
Format: cell-based
Conditions: free uptake; for % UTC (Yap1 mRNA): approximately 48 hours; for IC50: linear regression on a log/linear plot
Procedure: Modified oligonucleotides described in the studies above were tested at various doses in SNU-449 cells. Cultured SNU-449 cells at a density of 10,000 cells per well were treated using free uptake with modified oligonucleotides diluted to concentrations described in the tables below. After approximately 48 hours, Yap1 mRNA levels were measured as previously described using the Human Yap1 primer-probe set RTS36584. Yap1 mRNA levels were normalized to total RNA content, as measured by RIBOGREEN®. Results are presented in the tables below as percent control of the amount of Yap1 mRNA relative to untreated control cells (% UTC). IC50s were calculated using a linear regression on a log/linear plot of the data in excel.

Row | Substance | % UTC (Yap1 mRNA) (31.3 nM) [% UTC] | % UTC (Yap1 mRNA) (125.0 nM) [% UTC] | % UTC (Yap1 mRNA) (500.0 nM) [% UTC] | % UTC (Yap1 mRNA) (2000.00 nM) [% UTC] | IC50 [nM]
1 | 1198354 (kA*kA*kG*dT*dG*dT*dA*dT*dG*dT*d[5mC]*dA*kG*eA*kA*eG) [compound 1198354] | 66 | 24 | 5 | 1 | 50
2 | 1198553 (kT*kA*kG*dA*dG*dT*dA*dT*dG*dT*dG*dG*k[5mC]*kA*kA*eT; antisense) [compound 1198553] | 65 | 38 | 19 | 6 | 100
3 | 1200803 (kG*kG*kT*dA*dT*mA*dA*d[5mC]*dT*dG*dG*dG*d[5mC]*kA*kA*kA; antisense) [compound 1200803] | 72 | 52 | 34 | 18 | 200
4 | 1198856 (k[5mC]*kT*dT*dA*dT*dA*dT*dG*dG*dT*dT*kT*eT*kG*eT*kG; antisense) [compound 1198856] | 72 | 55 | 24 | 7 | 100
5 | 1198550 (kA*kT*kA*dT*dG*dG*dA*dA*dA*dT*dT*dG*kT*k[5mC]*kT*e[5mC]) [compound 1198550] | 73 | 56 | 30 | 13 | 200
6 | 1197223 (kT*kA*kA*dG*dT*dA*dA*dG*dG*dT*dT*dT*d[5mC]*k[5mC]*k[5mC]*kA; antisense) [compound 1197223] | 88 | 55 | 25 | 8 | 200
7 | 1198698 (kA*kA*dG*dT*dG*dT*dA*dT*dG*dT*d[5mC]*dA*kG*eA*kA*eG) [compound 1198698] | 55 | 29 | 8 | 2 | 30
8 | 1198285 (kA*kT*kT*dG*dT*d[5mC]*dT*d[5mC]*dA*dT*dG*d[5mC]*k[5mC]*eT*kT*eA; antisense) [compound 1198285] | 67 | 41 | 16 | 5 | 100
9 | 1198718 (kG*eA*kA*dA*dT*dT*dG*dT*d[5mC]*dT*d[5mC]*dA*eT*eG*k[5mC]*k[5mC]; antisense) [compound 1198718] | 87 | 37 | 14 | 4 | 100
10 | 1198959 (kA*kG*dT*dG*dT*dA*dT*dG*dT*d[5mC]*dA*kG*dA*kA*dG*kA; antisense) [compound 1198959] | 62 | 28 | 8 | 2 | 40
11 | 1198656 (kG*k[5mC]*dA*d[5mC]*dT*dT*dT*dT*dA*d[5mC]*dA*dT*kT*eA*kG*eG; antisense) [compound 1198656] | 55 | 22 | 8 | 3 | < 30
12 | 1198289 (kG*kG*kA*dA*dA*dT*dT*dG*dT*d[5mC]*dT*d[5mC]*kA*eT*kG*e[5mC]; antisense) [compound 1198289] | 72 | 41 | 18 | 9 | 100
13 | 1198267 (kA*kG*dT*dG*dT*dA*dT*dG*dT*d[5mC]*dA*eG*eA*eA*kG*kA; antisense) [compound 1198267] | 78 | 44 | 15 | 3 | 100
14 | 1200798 (kT*kA*kT*dT*dA*mG*dA*dG*dT*dA*dT*dG*dT*kG*kG*k[5mC]; antisense) [compound 1200798] | 77 | 44 | 17 | 7 | 100
15 | 1198610 (kT*kG*kT*dA*dT*dG*dT*d[5mC]*dA*dG*dA*dA*kG*kA*kG*eT; antisense) [compound 1198610] | 69 | 29 | 7 | 2 | 100
16 | 1198664 (kG*k[5mC]*dT*dT*dT*dG*dG*dA*dA*dG*dA*dT*k[5mC]*eT*kG*eA; antisense) [compound 1198664] | 52 | 33 | 14 | 5 | < 30
17 | 1198353 (kA*kG*kT*dG*dT*dA*dT*dG*dT*d[5mC]*dA*dG*kA*eA*kG*eA; antisense) [compound 1198353] | 60 | 30 | 10 | 4 | 40
18 | 1198814 (kA*kG*dA*dG*dT*dA*dT*dG*dT*dG*dG*k[5mC]*eA*kA*eT*kA) [compound 1198814] | 63 | 25 | 6 | 3 | 40
19 | 1198424 (k[5mC]*dT*d[5mC]*dT*dT*dA*dT*dA*dT*dG*dG*kT*eT*kT*eT*kG; antisense) [compound 1198424] | 64 | 44 | 24 | 9 | 100
20 | 1198961 (kA*kA*dA*dG*dT*dG*dT*dA*dT*dG*dT*k[5mC]*dA*kG*dA*kA; antisense) [compound 1198961] | 77 | 35 | 11 | 3 | 100
21 | 1198470 (kT*kA*dT*dT*dA*dG*dA*dG*dT*dA*dT*eG*kT*eG*kG*e[5mC]; antisense) [compound 1198470] | 73 | 41 | 18 | 9 | 100
22 | 1009326 (kT*kA*kT*dT*dA*dG*dA*dG*dT*dA*dT*dG*dT*kG*kG*k[5mC]; antisense) [compound 1009326] | 59 | 35 | 14 | 4 | 50
23 | 1198804 (kT*kG*dT*d[5mC]*dT*d[5mC]*dA*dT*dG*d[5mC]*d[5mC]*kT*eT*kA*eT*kA; antisense) [compound 1198804] | 71 | 48 | 19 | 5 | 100
24 | 1198746 (kG*e[5mC]*kA*d[5mC]*dT*dT*dT*dT*dA*d[5mC]*dA*dT*eT*eA*kG*kG) [compound 1198746] | 49 | 24 | 9 | 3 | < 30
